# In the OPERA property sets (Mansouri et al. 2018):
# Settings: not given
SMILES,log10 vapour pressure (mmHg),melting point [°C],boiling point [°C],log10 Koc (L/kg),log10 Henry constant (atm·m³/mol),ready biodegradability,log10 Koa,log10 biodegradation half-life (days),logP
Nc1ccccc1-c1ccccc1N,-5.57,81,,,,,,,
O=c1c(-c2ccccc2)c1-c1ccccc1,,119,,,,,,,
CCC(C)(CO)CO,,40.3,226,,,,,,
O=C(O)c1cc(O)nc(O)n1,,346,,,,,,,
Cc1cc(C)c(Br)cc1C,,73,234,,,,,,
CCCCCCCCCC(Br)C(=O)O (centres undefined),,10,,,,,,,
CCC(Br)CBr (centres undefined),0.491,-65.4,166,,,,,,
O=C(C(Cl)Cl)C(Cl)(Cl)Cl,,2.1,,,,,,,
CCCCCCC(=O)OCCCC,,-67.5,226,,,,,,
O=[N+]([O-])/N=C1\NCCN1Cc1ccc(Cl)nc1,,144,,,,,,,
NC(=O)Nc1cccc(Br)c1,,,,2.12,,,,,
CCCc1nccnc1C,,,189,,,,,,
c1ccc(CCCC2CCCC2)cc1,,,272,,,,,,
COc1ccccc1O,-0.987,32,205,1.56,-5.92,readily biodegradable,,,
CCOC(=O)C(C)Oc1ccc(Oc2cnc3cc(Cl)ccc3n2)cc1 (centres undefined),-8.19,84.2,,2.71,,,,,
CCCCOC(=O)CC(C)=O,,-35.6,,,,readily biodegradable,,,
c1cc2c3c(c1)ccc1cccc(c13)C2,,114,353,,,,,,
Cc1ccc(C(N)=O)cc1,,162,,1.78,,,,,
ClCC(Cl)(Cl)C(Cl)(Cl)Cl,,26,216,,,,,,
CC(=O)CC(=O)Nc1ccccc1Cl,,105,,,,,,,
Cc1ccc(C(=O)O)c(O)c1,,177,,,,,,,
CCCCCCCCCCCCCCI,-3.85,,,,,,,,
CCNC(=O)COC(=O)c1ccccc1,,106,,,,,,,
CC(C)OC(=O)OC(C)C,,,147,,,,,,
c1cc2c3c(c4ccc5ccccc5c4cc3c1)CC2,,174,,,,,,,
CC1=CC[C@@]23CC1C(C)(C)[C@@H]2CC[C@H]3C,,262,,,,,,,
O=C(O)c1cccc(Cl)n1,,,,1.37,,not readily biodegradable,,,

SMILES,log10 vapour pressure (mmHg),melting point [°C],boiling point [°C],log10 Koc (L/kg),log10 Henry constant (atm·m³/mol),ready biodegradability,log10 Koa,log10 biodegradation half-life (days),logP
Cc1ccc2nc(C)cc(C)c2c1,,68,280,,,,,,
O=[N+]([O-])c1ccc(N=Nc2ccc(N(CCO)CCO)cc2Cl)cc1,,190,,,,,,,
Oc1cccc(Nc2ccccc2)c1,,81.5,340,,,,,,
c1ccc(-c2ccccc2)cc1,-2.05,,256,3.27,-3.51,readily biodegradable,6.15,1.49,
C=CC[Si](Cl)(Cl)CC=C,0.445,,,,,,,,
CCC(C)c1cccc(C(C)CC)c1O (centres undefined),,-42,258,,,not readily biodegradable,,,
CC(C)c1ccncc1,,-54.9,178,,,,,,
OCCOc1ccccc1,-2.15,14,245,,,,,,
CC(C)CO,1.02,,,,-5.01,readily biodegradable,3.93,,
c1ccc(C2CCNCC2)cc1,,60.5,257,,,,,,
CCC(C)(C)C(C)(C)C,0.976,-9.8,140,,,,,,
Cc1ccc(N(C)C)cc1,-0.75,,211,,,,,,
O=CC1CCCO1 (centres undefined),,,142,,,,,,
Cc1cccc2c(C)cccc12,-2.3,82,265,,-3.46,,,,
CC(C)CC(=O)C1C(=O)c2ccccc2C1=O,,68.5,,,,,,,
CC[C@H](C)C(C)(C)C,1.51,-112,110,,,,,,
C#CCOc1cc(-n2nc3n(c2=O)CCCC3)c(Cl)cc1Cl,-11.1,168,,,,,,,
Brc1cc(Br)c(Oc2c(Br)cc(Br)c(Br)c2Br)cc1Br,,,,,,,,,8.27
O=C(Cl)c1ccc(F)cc1,,9,,,,,,,
O=C1OC(=O)c2ccccc21,-3.29,131,295,1.56,,readily biodegradable,,,
ClCCCOc1ccccc1,,12,250,,,,,,
C=COCCCCCCCCCC,,-41,,,,,,,
O=C(O)CCC(=O)OOC(=O)CCC(=O)O,,127,,,,,,,
Nc1nc(N)nc(-c2ccccc2)n1,,226,,,,not readily biodegradable,,,
CCOC(=O)NN,,46,,,,,,,
CC(=O)Nc1ccc(C#N)cc1,,207,,,,,,,
O=C(O)c1ccc(Br)c([N+](=O)[O-])c1,,204,,,,,,,

SMILES,log10 vapour pressure (mmHg),melting point [°C],boiling point [°C],log10 Koc (L/kg),log10 Henry constant (atm·m³/mol),ready biodegradability,log10 Koa,log10 biodegradation half-life (days),logP
CC(C)=CCCC(C)=CC(=O)O,,,250,,,,,,
CC(C)CCSSCCC(C)C,,,247,,,,,,
CCCCCCCCCCCCCCCCCCCCCCCCCCCCCC,-10.6,65.8,450,,,readily biodegradable,,2.24,
C=CCCC(C)(C)C,,,104,,,,,,
C1CCCNCCC1,,29,,,,,,,
Cc1cccc(Oc2cccc(C)c2)c1,,,284,,,,,,
CN1C(C)(C)CCCC1(C)C,,,147,,,,,,
O[C@H]1C=CCCC1,,,164,,,,,,
C=CCCC(C)C,,,85.3,,,,,,
Clc1ccc(C(Cl)(Cl)Cl)cc1Cl,,25.8,283,,,,,,
COc1ccc2c(c1)C(=O)c1ccccc1C2=O,-10.2,,,,,,,,
FC(Br)C(F)(F)Br (centres undefined),,,76,,,,,,
CCN(Cc1ccc(Cl)nc1)C(=C[N+](=O)[O-])NC,,82.8,,,,,,,
CCC(c1ccccc1)c1ccccc1,,13.3,282,,,,,,
Oc1ccc2c(c1)[C@@]13CCCC[C@H]1[C@@H](C2)N(CC1CC1)CC3,,188,,,,,,,
O=c1ccn([C@@H]2C[C@@H](O)[C@H](CO)O2)c(=O)[nH]1,,163,,,,,,,
Cc1c(C(N)=O)cc([N+](=O)[O-])cc1[N+](=O)[O-],,177,,,,,,,
OOC1CCCCC1,,-20,,,,,,,
CCCC=C(CCCC)CCCC,,,216,,,,,,
NC(=O)N(CCO)/N=C/c1ccc([N+](=O)[O-])o1,,214,,,,,,,
CCCCCCCCC=CCCCCCCCC(=O)OCCS(=O)(=O)[O][Na],,,,,,readily biodegradable,,,
ClCC(Cl)C(Cl)=C(Cl)C(Cl)CCl (centres undefined),,58.5,,,,,,,
CCCC(C)CCC,1.31,-121,118,,,,,0.602,
CC1C2Cc3ccc(O)cc3C1(C)CCN2CC1CC1 (centres undefined),,202,,,,,,,
NCCC(=O)O,,,,,,readily biodegradable,,,
CCC#N,1.68,-92.8,97.1,,-4.43,,2.69,,
CCc1cccc(C)c1N,,-33,231,,,,,,

SMILES,log10 vapour pressure (mmHg),melting point [°C],boiling point [°C],log10 Koc (L/kg),log10 Henry constant (atm·m³/mol),ready biodegradability,log10 Koa,log10 biodegradation half-life (days),logP
CCCCCCCCO,-1.1,-15.5,195,1.56,-4.61,readily biodegradable,6.03,,
COc1ccc(N=C=S)cc1,,18,280,,,,,,
COc1cc(C=O)cc(OC)c1,,46.3,,,,,,,
O=C(O)CNC(=O)c1ccccc1O,,168,,,,,,,
CN=C(O)Oc1cccc(C)c1,-2.97,76.5,,,,not readily biodegradable,,,
Cc1cc(N(C)C)ccc1N=Nc1ccccc1,,68,,,,,,,
O=C(Cl)c1ccccc1C(=O)Cl,-1.79,15.5,281,,,,,,
CCOP(=S)(Oc1ccc(C#N)cc1)c1ccccc1 (centres undefined),,83,,,,,,,
OCCCl,0.856,-67.5,129,,,readily biodegradable,4.3,,
Cc1cccc([N+](=O)[O-])c1O,,70,,,-4.47,,,,
Cc1cc(Cl)c(Cl)c(Cl)c1,,45.5,246,,,,,,
CC(=O)OCc1ccco1,,,179,,,,,,
CCCCC(C)(CC)CC,,,164,,,,,,
O=C([O-])C(F)(F)C(F)F.[Na+],-3.52,,,,,,,,
Cl.NCCc1c[nH]c2ccccc12,,255,,,,,,,
O=c1n(Cl)c(=O)n(Cl)c(=O)n1Cl,,,,,,not readily biodegradable,,,
CC(F)(F)CCl,,-56.2,55,,,,,,
CC(Br)C(=O)c1ccccc1 (centres undefined),,,248,,,,,,
c1ccc2c(c1)ccc1ccccc12,-3.92,99.2,340,4.35,-4.37,readily biodegradable,7.57,1.62,
O=[N+]([O-])c1ccc(O)c(O)c1,,175,,,,,,,
BrCc1ccc(Br)cc1,,63,,,,,,,
CN(N=O)c1ccc(N=O)cc1,,101,,,,,,,
COC(=O)c1cccnc1,,42.5,204,,,,,,
O=C(Cl)c1ccc(Cl)c(Cl)c1,,25,242,,,,,,

# Same assay, conditions: fish
SMILES,log10 BCF,log10 biotransformation half-life (days)
c1ccc(-c2ccccc2)cc1,2.64,
CCC(C)c1cccc(C(C)CC)c1O (centres undefined),2.39,-0.22
Brc1cc(Br)c(Oc2c(Br)cc(Br)c(Br)c2Br)cc1Br,,1.65
c1ccc2c(c1)ccc1ccccc12,3.4,0.7
Clc1c(Cl)c(Cl)c(Oc2c(Cl)c(Cl)c(Cl)c(Cl)c2Cl)c(Cl)c1Cl,,1.8
O=[N+]([O-])c1ccc(Cl)c(S(=O)(=O)[O][Na])c1,0.48,
